Source: publication PMC10451623 (Antioxidants, 2023)

Molecular target: T1, PPARα-LBD (Homo sapiens, UniProt Q07869)
T1 sequence (Q07869 200-468): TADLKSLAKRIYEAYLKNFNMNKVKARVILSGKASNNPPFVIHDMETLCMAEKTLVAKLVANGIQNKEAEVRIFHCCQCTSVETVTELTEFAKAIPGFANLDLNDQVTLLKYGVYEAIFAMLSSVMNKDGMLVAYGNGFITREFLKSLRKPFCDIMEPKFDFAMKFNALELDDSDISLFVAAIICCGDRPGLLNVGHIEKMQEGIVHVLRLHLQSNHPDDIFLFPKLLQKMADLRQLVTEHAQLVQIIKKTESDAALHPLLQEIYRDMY
Assay: Thermal stability assay using circular dichroism spectroscopy
Format: binding
Parameters: Human PPARα-LBD (amino acids 200–468); His tag (pET28a) (N); made in house; host or cells: Rosetta (DE3) pLysS (E. coli)
Settings: CD at 222 nm; 10 µM LBD; GW7647 at 10 µM
Experimental: PPARα/δ/γ-LBD proteins (10 µM) were incubated with different concentrations of ligands in buffer C consisting of 20 mM Tris-HCl (pH 8.0), 150 mM NaCl, 1 mM Tris 2-carboxyethylphosphine (TCEP)-HCl, and 10% glycerol. The circular dichroism (CD) spectra were monitored within a 200–260 nm range at increasing temperatures from 30 °C to 70 °C (2 °C/min) using a J-1500 spectropolarimeter equipped with a PTC-510 thermal controller (JASCO, Tokyo, Japan). […] The ligand-induced increases in the Tm values were defined as ∆Tm.
Nuclear receptors, including PPARs, display an increased thermal stability upon ligand binding, which is detectable through CD spectroscopy.
Figure 3 Circular dichroism-based PPARα/δ/γ-LBD thermal stability assay. […] Data are presented as the mean ± SE of three or four (in parentheses) independent experiments. Differences vs. basal levels (with 0.1% DMSO) were statistically assessed by one-way ANOVA, followed by a Dunnett’s post hoc test: * p < 0.05, ** p < 0.01, and *** p < 0.001.

Effect on Tm of PPARα-LBD (in words) | SMILES
increased the Tm values | O=C(O)CCCc1cc2cc(Cl)ccc2n1S(=O)(=O)c1ccc2ncsc2c1 [lanifibranor]
highly increased the Tm values | CCO[C@@H](Cc1ccc(OCCn2c(C)ccc2-c2ccc(SC)cc2)cc1)C(=O)O [saroglitazar]
increased the Tm values | CCO[C@H](COc1ccc(C(F)(F)F)cc1)CSc1ccc(OCC(=O)O)c(C)c1 [seladelpar]

SMILES | Effect on Tm of PPARα-LBD (in words)
CSc1ccc(C(=O)/C=C/c2cc(C)c(OC(C)(C)C(=O)O)c(C)c2)cc1 [elafibranor] | did not significantly alter the Tm values
